Test results from EP0620225B1, “Cephalosporin derivatives” (Basilea Pharmaceutica AG, priority 1993, dated 1994).
In brackets after ≈: the same amount, converted by molar mass. Where a name gives a salt, the structure may show the parent alone. Blank lines part the entries; values can stand above or below the molecule they belong to.

How the values were obtained:
Ps. aeruginosa 5712 = assay: MIC, agar dilution method in Mueller Hinton agar; type: cell-based; settings: Pseudomonas aeruginosa, read-out: Minimum Inhibiting Concentration Values
Experimental: (§1) In vitro activity was determined by minimum inhibitory concentration in a microorganism spectum by the agar dilution method in Mueller Hinton agar.

Staph. aureus Smith = assay: MIC, agar dilution method in Mueller Hinton agar; type: cell-based; settings: Staphylococcus aureus, read-out: Minimum Inhibiting Concentration Values
Experimental: as §1

E. coli ATCC 25922 = assay: MIC, agar dilution method in Mueller Hinton agar; type: cell-based; settings: Escherichia coli, ATCC25922, read-out: Minimum Inhibiting Concentration Values
Experimental: as §1

Staph. aureus ATCC 29213 = assay: MIC, agar dilution method in Mueller Hinton agar; type: cell-based; settings: Staphylococcus aureus, ATCC29213, read-out: Minimum Inhibiting Concentration Values
Experimental: as §1

[1] = test system: Ps. aeruginosa ATCC 27853; assay: MIC, agar dilution method in Mueller Hinton agar; type: cell-based; settings: Pseudomonas aeruginosa, ATCC27853, read-out: Minimum Inhibiting Concentration Values
Experimental: as §1

Str. pyogenes 4 = assay: MIC, agar dilution method in Mueller Hinton agar; type: cell-based; settings: Streptococcus pyogenes, read-out: Minimum Inhibiting Concentration Values
Experimental: as §1

E. coli TEM-1 = assay: MIC, agar dilution method in Mueller Hinton agar; type: cell-based; settings: Escherichia coli, TEM1, read-out: Minimum Inhibiting Concentration Values
Experimental: as §1

Str. pneumoniae 6301 = assay: MIC, agar dilution method in Mueller Hinton agar; type: cell-based; settings: Streptococcus pneumoniae; Str. pneumoniae 6301; read-out: Minimum Inhibiting Concentration Values
Experimental: as §1

Prot. vulgaris ATCC 6380 = assay: MIC, agar dilution method in Mueller Hinton agar; type: cell-based; settings: Proteus vulgaris, ATCC6380, read-out: Minimum Inhibiting Concentration Values
Experimental: as §1

[2] = test system: Pseudomonas aeruginosa BA; assay: Efficacy against systemic infections (septicemia) in mice; type: in vivo; settings: 96 h, sc (subcutaneous) 1, 3 and 5 h after challenge, survival day 4
In short: (§2)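 Swiss albino mice (16–20 g) infected i.p. with 4–10× the 48-h LD50 of each strain; compound given p.o. or s.c. at 1 and 3 h post-challenge, plus 5 h for P. aeruginosa BA. Five mice per group; ED50 (mg/kg) by probit analysis of day-4 survival.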

[3] = test system: Streptococcus pyogenes 15; assay: as above; type: in vivo; settings: 96 h, Streptococcus pyogenes 15, po (orally) 1 and 3 h after challenge, survival day 4
In short: as §2

Escherichia coli 25922 = assay: as above; type: in vivo; settings: 96 h, survival day 4
In short: as §2

M.catarrhalis = assay: In vitro activity against selected species (MIC50, MIC90, range); type: cell-based; settings: Moraxella catarrhalis, medium IsoB
S.aureus MRSA = assay: as above; type: cell-based; settings: Staphylococcus aureus, medium MHA (Mueller Hinton Agar) +NaCl
Experimental: as §1

E.faecalis [4] = assay: as above; type: cell-based; settings: Enterococcus faecalis, medium MHA
Experimental: as §1

S.pneumoniae PEN-R = assay: as above; type: cell-based; settings: Streptococcus pneumoniae; for MIC: MIC range
E.faecalis [5] = assay: as above; type: cell-based; settings: Enterococcus faecalis, medium IsoB
S.aureus Smith = assay: Efficacy against systemic infections (septicemia) in mice; type: in vivo; settings: Staphylococcus aureus, 96 h, sc 1 and 3 h after challenge, survival day 4
In short: as §2

E.faecium = assay: In vitro activity against selected species (MIC50, range); type: cell-based; settings: Enterococcus faecium, medium MHA
Experimental: as §1

S.agalactiae QK44 = assay: Antibacterial spectrum (MIC), agar dilution; type: cell-based; settings: Streptococcus agalactiae, read-out: MIC
Experimental: as §1

H.influenzae 1 = assay: Antibacterial spectrum (MIC), agar dilution; type: cell-based; settings: Haemophilus influenzae, read-out: MIC
Experimental: as §1

B.fragilis ATCC25285 = assay: Antibacterial spectrum (MIC), agar dilution; type: cell-based; settings: Bacteroides fragilis, read-out: MIC
Experimental: as §1

Acinetobacter sp.51-156 = assay: Antibacterial spectrum (MIC), agar dilution; type: cell-based; settings: SP.51156, read-out: MIC
Experimental: as §1

P.asaccharolyticus 29743 = assay: Antibacterial spectrum (MIC), agar dilution; type: cell-based; settings: Peptoniphilus asaccharolyticus, read-out: MIC
Experimental: as §1

C.difficile ZH1 = assay: Antibacterial spectrum (MIC), agar dilution; type: cell-based; settings: Clostridioides difficile, read-out: MIC
Experimental: as §1

E.coli 25922 = assay: Antibacterial spectrum (MIC), agar dilution; type: cell-based; settings: Escherichia coli, read-out: MIC
Experimental: as §1

E.cloacae 908SSi = assay: Antibacterial spectrum (MIC), agar dilution; type: cell-based; settings: Enterobacter cloacae, read-out: MIC
Experimental: as §1

S.aureus 734 MRSA = assay: Antibacterial spectrum (MIC), agar dilution; type: cell-based; settings: Staphylococcus aureus, read-out: MIC
Experimental: as §1

S.pneumoniae Q19 = assay: Antibacterial spectrum (MIC), agar dilution; type: cell-based; settings: Streptococcus pneumoniae, read-out: MIC
Experimental: as §1

K.pneumoniae 418 = assay: Antibacterial spectrum (MIC), agar dilution; type: cell-based; settings: Klebsiella pneumoniae, read-out: MIC
Experimental: as §1

L.monocytogenes BK23 = assay: Antibacterial spectrum (MIC), agar dilution; type: cell-based; settings: Listeria monocytogenes, read-out: MIC
Experimental: as §1

M.morganii 6H-137 = assay: Antibacterial spectrum (MIC), agar dilution; type: cell-based; settings: Morganella morganii, 6H137, read-out: MIC
Experimental: as §1

S.viridans group 016 = assay: Antibacterial spectrum (MIC), agar dilution; type: cell-based; settings: Streptococcus viridans, read-out: MIC
Experimental: as §1

E.cloacae 908R = assay: Antibacterial spectrum (MIC), agar dilution; type: cell-based; settings: Enterobacter cloacae, read-out: MIC
Experimental: as §1

N.meningitidis 69480 = assay: Antibacterial spectrum (MIC), agar dilution; type: cell-based; settings: Neisseria meningitidis, read-out: MIC
Experimental: as §1

X.maltophilia 1AC739 = assay: Antibacterial spectrum (MIC), agar dilution; type: cell-based; settings: Stenotrophomonas maltophilia, read-out: MIC
Experimental: as §1

E.faecalis 6 = assay: Antibacterial spectrum (MIC), agar dilution; type: cell-based; settings: Enterococcus faecalis, read-out: MIC
Experimental: as §1

C.freundii 902 = assay: Antibacterial spectrum (MIC), agar dilution; type: cell-based; settings: Citrobacter freundii, read-out: MIC
Experimental: as §1

C.freundii 43 = assay: Antibacterial spectrum (MIC), agar dilution; type: cell-based; settings: Citrobacter freundii, read-out: MIC
Experimental: as §1

S.pyogenes B15 = assay: Antibacterial spectrum (MIC), agar dilution; type: cell-based; settings: Streptococcus pyogenes, read-out: MIC
Experimental: as §1

P.mirabilis 2117 = assay: Antibacterial spectrum (MIC), agar dilution; type: cell-based; settings: Proteus mirabilis, read-out: MIC
Experimental: as §1

P.aeruginosa 27853 = assay: Antibacterial spectrum (MIC), agar dilution; type: cell-based; settings: Pseudomonas aeruginosa, read-out: MIC
Experimental: as §1

P.vulgaris 1028 = assay: Antibacterial spectrum (MIC), agar dilution; type: cell-based; settings: Proteus vulgaris, read-out: MIC
Experimental: as §1

S.aureus 6538 = assay: Antibacterial spectrum (MIC), agar dilution; type: cell-based; settings: Staphylococcus aureus, read-out: MIC
Experimental: as §1

M.catarrhalis RA21 = assay: Antibacterial spectrum (MIC), agar dilution; type: cell-based; settings: Moraxella catarrhalis, read-out: MIC
Experimental: as §1

S.marcescens 69438 = assay: Antibacterial spectrum (MIC), agar dilution; type: cell-based; settings: Serratia marcescens, read-out: MIC
Experimental: as §1

S.aureus MSSA = assay: In vitro activity against selected species (MIC50, MIC90, range); type: cell-based; settings: Staphylococcus aureus, medium MHB (Mueller Hinton Broth)
S.viridans group = assay: as above; type: cell-based; settings: Streptococcus viridans
[6] = Escherichia coli 25922, po (orally) 1 and 3 h after challenge
[7] = medium IsoB (Isosensitest Broth)

Compound: Nc1nc(/C(=N/OCC(=O)O)C(=O)N[C@@H]2C(=O)N3C(C(=O)O)=C(/C=C4\CCN(C5CC5)C4=O)CS[C@H]23)cs1 [C, [6R-[3(E),6α,7β(Z)]]-7-[[(2-Amino-4-thiazolyl)[(carboxy-methoxy)imino]-acetyl]amino]-3-[[1-cyclopropyl-2-oxo-3-pyrrolidinylidene]-methyl]-8-oxo-5-thia-1-azabicyclo[4.2.0]oct-2-ene-2-carboxylic acid disodium salt]
- MIC (Ps. aeruginosa 5712): 4 µg/mL
- MIC (Staph. aureus Smith): 8 µg/mL
- MIC (E. coli ATCC 25922): 0.0313 µg/mL
- MIC (Staph. aureus ATCC 29213): 16 µg/mL
- MIC [1]: 4 µg/mL
- MIC (Str. pyogenes 4): 0.125 µg/mL
- MIC (E. coli TEM-1): 0.0313 µg/mL
- MIC (Str. pneumoniae 6301): 0.0625 µg/mL
- MIC (Prot. vulgaris ATCC 6380): ≤ 0.0156 µg/mL
- ED50 [2]: 12 mg/kg
- ED50 [3]: 0.78 mg/kg
- ED50 (Escherichia coli 25922; [6]): < 0.1 mg/kg

Compound: C=CC1=C(C(=O)O)N2C(=O)[C@@H](NC(=O)/C(=N\OCC(=O)O)c3csc(N)n3)[C@H]2SC1 [Cefixime, reference compound]
- ED50 [3]: 2 mg/kg
- ED50 (Escherichia coli 25922; [6]): 0.5 mg/kg

- MIC (M.catarrhalis; MIC range): 1 to 16 µg/mL (≈ 1.83 to 29.3 µM)
- MIC50 (M.catarrhalis): 4 µg/mL (≈ 7.32 µM)
- MIC90 (M.catarrhalis): 16 µg/mL (≈ 29.3 µM)
- MIC (S.aureus MRSA; MIC range): 8 to 16 µg/mL (≈ 14.6 to 29.3 µM)
- MIC50 (S.aureus MRSA): 8 µg/mL (≈ 14.6 µM)
- MIC90 (S.aureus MRSA): 8 µg/mL (≈ 14.6 µM)
- MIC (E.faecalis [4]; MIC range): 1 to 2 µg/mL (≈ 1.83 to 3.66 µM)
- MIC50 (E.faecalis [4]): 1 µg/mL (≈ 1.83 µM)
- MIC90 (E.faecalis [4]): 2 µg/mL (≈ 3.66 µM)
- MIC (S.pneumoniae PEN-R; [7]): 0.12 to 0.5 µg/mL (≈ 0.22 to 0.915 µM)
- MIC (S.pneumoniae PEN-R; medium IsoB + 20% serum): 0.25 to 0.5 µg/mL
- MIC50 (S.pneumoniae PEN-R; [7]): 0.25 µg/mL (≈ 0.457 µM)
- MIC90 (S.pneumoniae PEN-R; [7]): 0.5 µg/mL (≈ 0.915 µM)
- MIC50 (S.pneumoniae PEN-R; medium IsoB + 20% serum): 0.5 µg/mL
- MIC (E.faecalis [5]; MIC range): 0.25 to 2 µg/mL (≈ 0.457 to 3.66 µM)
- MIC50 (E.faecalis [5]): 0.5 µg/mL (≈ 0.915 µM)
- MIC90 (E.faecalis [5]): 2 µg/mL (≈ 3.66 µM)
- MIC (E.faecium; MIC range): 1 to 16 µg/mL (≈ 1.83 to 29.3 µM)
- MIC50 (E.faecium): 4 µg/mL (≈ 7.32 µM)
- MIC (S.agalactiae QK44): 0.25 µg/mL (≈ 0.457 µM)
- MIC (H.influenzae 1): 0.25 µg/mL (≈ 0.457 µM)
- MIC (B.fragilis ATCC25285): 8 µg/mL (≈ 14.6 µM)
- MIC (Acinetobacter sp.51-156): 16 µg/mL (≈ 29.3 µM)
- MIC (P.asaccharolyticus 29743): ≤ 0.12 µg/mL
- MIC (C.difficile ZH1): 8 µg/mL (≈ 14.6 µM)
- MIC (E.coli 25922): 0.12 µg/mL (≈ 0.22 µM)
- MIC (E.cloacae 908SSi): 0.25 µg/mL (≈ 0.457 µM)
- MIC (S.aureus 734 MRSA): 8 µg/mL (≈ 14.6 µM)
- MIC (S.pneumoniae Q19): ≤ 0.06 µg/mL
- MIC (K.pneumoniae 418): 0.12 µg/mL (≈ 0.22 µM)
- MIC (L.monocytogenes BK23): 4 µg/mL (≈ 7.32 µM)
- MIC (M.morganii 6H-137): ≤ 0.06 µg/mL
- MIC (S.viridans group 016): 1 µg/mL (≈ 1.83 µM)
- MIC (E.cloacae 908R): 16 µg/mL (≈ 29.3 µM)
- MIC (N.meningitidis 69480): ≤ 0.06 µg/mL
- MIC (X.maltophilia 1AC739): > 32 µg/mL
- MIC (E.faecalis 6): 1 µg/mL (≈ 1.83 µM)
- MIC (C.freundii 902): 0.12 µg/mL (≈ 0.22 µM)
- MIC (C.freundii 43): 4 µg/mL (≈ 7.32 µM)
- MIC (S.pyogenes B15): ≤ 0.06 µg/mL
- MIC (P.mirabilis 2117): ≤ 0.06 µg/mL
- MIC (P.aeruginosa 27853): 16 µg/mL (≈ 29.3 µM)
- MIC (P.vulgaris 1028): 1 µg/mL (≈ 1.83 µM)
- MIC (S.aureus 6538): 0.5 µg/mL (≈ 0.915 µM)
- MIC (M.catarrhalis RA21): 16 µg/mL (≈ 29.3 µM)
- MIC (S.marcescens 69438): 1 µg/mL (≈ 1.83 µM)
- MIC (S.aureus MSSA; MIC range): 0.5 to 1 µg/mL (≈ 0.915 to 1.83 µM)
- MIC50 (S.aureus MSSA): 1 µg/mL (≈ 1.83 µM)
- MIC90 (S.aureus MSSA): 1 µg/mL (≈ 1.83 µM)
- MIC50 (S.viridans group): 2 µg/mL (≈ 3.66 µM)
- MIC90 (S.viridans group): 2 µg/mL (≈ 3.66 µM)
- MIC (S.viridans group; MIC range): 0.12 to 4 µg/mL (≈ 0.22 to 7.32 µM)
Compound: Nc1nc(/C(=N/O)C(=O)N[C@@H]2C(=O)N3C(C(=O)O)=C(/C=C4\CCN(CC(F)(F)F)C4=O)CS[C@H]23)cs1 [E, [6R-[3(E),6α,7β(Z)]]-7-[[(2-Amino-4-thiazolyl)(hydroxyimino)-acetyl]amino]-3-[[1-(2,2,2-trifluoroethyl)-2-oxo-3-pyrrolidinylidene]-methyl]-8-oxo-5-thia-1-azabicyclo[4.2.0]oct-2-ene-2-carboxylic acid]
- ED50 (S.aureus Smith): < 1 mg/kg
- ED50 (Escherichia coli 25922; [6]): 3 mg/kg
- ED50 (Escherichia coli 25922; Escherichia coli, E.coli 25922, sc 1 and 3 h after challenge): 0.07 mg/kg
